Assay results published in patent EP0584797A2, “Novel cephalosporin compounds and processes for the preparation thereof” (LUCKY LTD., priority 1992, dated 1994).
In brackets after ≈: the same amount, converted by molar mass.

Assays:
Assay in all cases: minimal inhibitory concentration, two-fold agar dilution
Assay type in all cases: cell-based
[1] = test system: Acinetobacter calcoaceticus ATCC 15437; details: ATCC15437, Muller-Hinton agar, 37°C, 20 hours, read-out: MIC values against the standard strains
Outline: (§1)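 Compounds were serially diluted two-fold into Mueller-Hinton agar, and each plate was spot-inoculated with the test strain at 10⁷ CFU per ml. Plates were incubated at 37°C for 20 hours before MIC values were read.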

[2] = test system: Bacillus cereus ATCC 11778; details: ATCC11778, Muller-Hinton agar, 37°C, 20 hours, read-out: MIC values against the standard strains
Outline: as §1

[3] = test system: Bacillus megaterium ATCC 9885; details: Priestia megaterium, ATCC9885; Muller-Hinton agar; 37°C; 20 hours; read-out: MIC values against the standard strains
Outline: as §1

[4] = test system: Citrobacter freundii ATCC 8090; details: ATCC8090, Muller-Hinton agar, 37°C, 20 hours, read-out: MIC values against the standard strains
Outline: as §1

[5] = test system: Enterobacter aerogenes ATCC 29751; details: Klebsiella aerogenes, ATCC29751; Muller-Hinton agar; 37°C; 20 hours; read-out: MIC values against the standard strains
Outline: as §1

[6] = test system: Enterobacter cloacae ATCC 27508; details: ATCC27508, Muller-Hinton agar, 37°C, 20 hours, read-out: MIC values against the standard strains
Outline: as §1

[7] = test system: Escherichia coli ATCC 10536; details: ATCC10536, Muller-Hinton agar, 37°C, 20 hours, read-out: MIC values against the standard strains
Outline: as §1

[8] = test system: Escherichia coli ATCC 25922; details: ATCC25922, Muller-Hinton agar, 37°C, 20 hours, read-out: MIC values against the standard strains
Outline: as §1

[9] = test system: Klebsiella pneumoniae ATCC 10031; details: ATCC10031, Muller-Hinton agar, 37°C, 20 hours, read-out: MIC values against the standard strains
Outline: as §1

[10] = test system: Micrococcus luteus ATCC 9341; details: ATCC9341, Muller-Hinton agar, 37°C, 20 hours, read-out: MIC values against the standard strains
Outline: as §1

[11] = test system: Morganella morganii ATCC 8076h; details: ATCC8076H, Muller-Hinton agar, 37°C, 20 hours, read-out: MIC values against the standard strains
Outline: as §1

[12] = test system: Proteus mirabilis ATCC 25933; details: ATCC25933, Muller-Hinton agar, 37°C, 20 hours, read-out: MIC values against the standard strains
Outline: as §1

[13] = test system: Proteus vulgaris ATCC 6059; details: ATCC6059, Muller-Hinton agar, 37°C, 20 hours, read-out: MIC values against the standard strains
Outline: as §1

[14] = test system: Providencia rettgeri ATCC 9250; details: ATCC9250, Muller-Hinton agar, 37°C, 20 hours, read-out: MIC values against the standard strains
Outline: as §1

[15] = test system: Pseudomonas aeruginosa ATCC 10145; details: ATCC10145, Muller-Hinton agar, 37°C, 20 hours, read-out: MIC values against the standard strains
Outline: as §1

[16] = test system: Pseudomonas aeruginosa ATCC 25619; details: ATCC25619, Muller-Hinton agar, 37°C, 20 hours, read-out: MIC values against the standard strains
Outline: as §1

[17] = test system: Pseudomonas aeruginosa ATCC 27853; details: ATCC27853, Muller-Hinton agar, 37°C, 20 hours, read-out: MIC values against the standard strains
Outline: as §1

[18] = test system: Salmonella typhimurium ATCC 14028; details: Salmonella enterica; Muller-Hinton agar; 37°C; 20 hours; read-out: MIC values against the standard strains
Outline: as §1

[19] = test system: Serratia marcescens ATCC 27117; details: ATCC27117, Muller-Hinton agar, 37°C, 20 hours, read-out: MIC values against the standard strains
Outline: as §1

[20] = test system: Shigella flexneri ATCC 11836; details: ATCC11836, Muller-Hinton agar, 37°C, 20 hours, read-out: MIC values against the standard strains
Outline: as §1

[21] = test system: Shigella sonnei ATCC 11060; details: ATCC11060, Muller-Hinton agar, 37°C, 20 hours, read-out: MIC values against the standard strains
Outline: as §1

[22] = test system: Staphylococcus aureus ATCC 10537; details: ATCC10537, Muller-Hinton agar, 37°C, 20 hours, read-out: MIC values against the standard strains
Outline: as §1

[23] = test system: Staphylococcus aureus ATCC 6538p; details: ATCC6538P, Muller-Hinton agar, 37°C, 20 hours, read-out: MIC values against the standard strains
Outline: as §1

[24] = test system: Staphylococcus epidermidis ATCC 12228; details: ATCC12228, Muller-Hinton agar, 37°C, 20 hours, read-out: MIC values against the standard strains
Outline: as §1

[25] = test system: Streptococcus faecalis ATCC 29212; details: Enterococcus faecalis, ATCC29212; Muller-Hinton agar; 37°C; 20 hours; read-out: MIC values against the standard strains
Outline: as §1

CCO/N=C(\C(=O)N[C@@H]1C(=O)N2C(C(=O)[O-])=C(CSc3nc(N)cc(OC)[n+]3C)CS[C@H]12)c1csc(N)n1 [Example 18, 7-[(Z)-2-(2-aminothiazol-4-yl)-2-(ethoxyimino)acetamido]-3-(4-amino-6-methoxy-1-methylpyrimidinium-2-yl)thiomethyl-3-cephem-4-carboxylate]
MIC [1]: 8 µg/mL (≈ 13.8 µM)
MIC [2]: 32 µg/mL (≈ 55.1 µM)
MIC [3]: 0.13 µg/mL (≈ 0.224 µM)
MIC [4]: 0.13 µg/mL (≈ 0.224 µM)
MIC [5]: 1 µg/mL (≈ 1.72 µM)
MIC [6]: ≤ 0.008 µg/mL
MIC [7]: 0.13 µg/mL (≈ 0.224 µM)
MIC [8]: 0.25 µg/mL (≈ 0.431 µM)
MIC [9]: ≤ 0.008 µg/mL
MIC [10]: 0.016 µg/mL (≈ 0.0276 µM)
MIC [11]: ≤ 0.008 µg/mL
MIC [12]: 0.5 µg/mL (≈ 0.861 µM)
MIC [13]: 0.5 µg/mL (≈ 0.861 µM)
MIC [14]: ≤ 0.008 µg/mL
MIC [15]: 16 µg/mL (≈ 27.6 µM)
MIC [16]: 2 µg/mL (≈ 3.44 µM)
MIC [17]: 16 µg/mL (≈ 27.6 µM)
MIC [18]: 0.5 µg/mL (≈ 0.861 µM)
MIC [19]: 0.5 µg/mL (≈ 0.861 µM)
MIC [20]: 0.13 µg/mL (≈ 0.224 µM)
MIC [21]: 0.25 µg/mL (≈ 0.431 µM)
MIC [22]: 0.25 µg/mL (≈ 0.431 µM)
MIC [23]: 0.5 µg/mL (≈ 0.861 µM)
MIC [24]: 0.13 µg/mL (≈ 0.224 µM)
MIC [25]: 16 µg/mL (≈ 27.6 µM)

CCO/N=C(\C(=O)N[C@@H]1C(=O)N2C(C(=O)[O-])=C(CSc3nc(N)cc[n+]3C)CS[C@H]12)c1csc(N)n1 [Example 4, 7-[(Z)-2-(aminothiazol-4-yl)-2-(ethoxyimino)acetamido]-3-(4-amino-1-methylpyrimidinium-2-yl)thiomethyl-3-cephem-4-carboxylate]
MIC [1]: 8 µg/mL (≈ 14.5 µM)
MIC [2]: 32 µg/mL (≈ 58.1 µM)
MIC [3]: 0.13 µg/mL (≈ 0.236 µM)
MIC [4]: 0.063 µg/mL (≈ 0.114 µM)
MIC [5]: 0.25 µg/mL (≈ 0.454 µM)
MIC [6]: ≤ 0.008 µg/mL
MIC [7]: 0.063 µg/mL (≈ 0.114 µM)
MIC [8]: 0.063 µg/mL (≈ 0.114 µM)
MIC [9]: ≤ 0.008 µg/mL
MIC [10]: 0.063 µg/mL (≈ 0.114 µM)
MIC [11]: ≤ 0.008 µg/mL
MIC [12]: 0.5 µg/mL (≈ 0.908 µM)
MIC [13]: 0.5 µg/mL (≈ 0.908 µM)
MIC [14]: ≤ 0.008 µg/mL
MIC [15]: 16 µg/mL (≈ 29.1 µM)
MIC [16]: 1 µg/mL (≈ 1.82 µM)
MIC [17]: 8 µg/mL (≈ 14.5 µM)
MIC [18]: 0.25 µg/mL (≈ 0.454 µM)
MIC [19]: 0.25 µg/mL (≈ 0.454 µM)
MIC [20]: 0.031 µg/mL (≈ 0.0563 µM)
MIC [21]: 0.25 µg/mL (≈ 0.454 µM)
MIC [22]: 0.25 µg/mL (≈ 0.454 µM)
MIC [23]: 0.5 µg/mL (≈ 0.908 µM)
MIC [24]: 0.13 µg/mL (≈ 0.236 µM)
MIC [25]: 64 µg/mL (≈ 116 µM)

COc1cc(N)nc(SCC2=C(C(=O)[O-])N3C(=O)[C@@H](NC(=O)/C(=N\OC(C)(C)C(=O)O)c4csc(N)n4)[C@H]3SC2)[n+]1C [Example 17, 7-[(Z)-2-(2-aminothiazol-4-yl)-2-(carboxyprop-2-oxyimino)acetamido]-3-(4-amino-6-methoxy-1-methylpyrimidinium-2-yl)thiomethyl-3-cephem-4-carboxylate]
MIC [1]: 2 µg/mL (≈ 3.13 µM)
MIC [2]: 128 µg/mL (≈ 200 µM)
MIC [3]: 0.25 µg/mL (≈ 0.391 µM)
MIC [4]: 0.13 µg/mL (≈ 0.204 µM)
MIC [5]: 4 µg/mL (≈ 6.26 µM)
MIC [6]: 0.016 µg/mL (≈ 0.0251 µM)
MIC [7]: 0.063 µg/mL (≈ 0.0986 µM)
MIC [8]: 0.13 µg/mL (≈ 0.204 µM)
MIC [9]: 0.063 µg/mL (≈ 0.0986 µM)
MIC [10]: 0.5 µg/mL (≈ 0.783 µM)
MIC [11]: 0.016 µg/mL (≈ 0.0251 µM)
MIC [12]: 0.063 µg/mL (≈ 0.0986 µM)
MIC [13]: 0.13 µg/mL (≈ 0.204 µM)
MIC [14]: 0.13 µg/mL (≈ 0.204 µM)
MIC [15]: 4 µg/mL (≈ 6.26 µM)
MIC [16]: 1 µg/mL (≈ 1.57 µM)
MIC [17]: 2 µg/mL (≈ 3.13 µM)
MIC [18]: 0.25 µg/mL (≈ 0.391 µM)
MIC [19]: 0.25 µg/mL (≈ 0.391 µM)
MIC [20]: 0.031 µg/mL (≈ 0.0485 µM)
MIC [21]: 0.13 µg/mL (≈ 0.204 µM)
MIC [22]: 1 µg/mL (≈ 1.57 µM)
MIC [23]: 4 µg/mL (≈ 6.26 µM)
MIC [24]: 1 µg/mL (≈ 1.57 µM)
MIC [25]: > 128 µg/mL
